Patent publication US20190010167A1, “INHIBITORS OF THE MENIN-MLL INTERACTION” (Vitae Pharmaceuticals, Inc., priority 2015, published 2019)
pIC50: −log10 of the molar value.

Tests used:
[1] = molecular target: T1, menin/MLL (Gal4-Menin and MLL1-46-VP16) in HEK293 cells (Homo sapiens, UniProt O00255); experiment: Mammalian cellular two-hybrid assay in HEK293 cells (Assay 2, cell assay); assay type: cell-based; conditions: Gal4-Menin/MLL1-46-VP16 two-hybrid, NanoLuc luciferase reporter, 16-18 h
T1 construct: expressed in transfected cells; host or cells: HEK293 (ATCC)
T1 sequence (P04386 1-147 partner limits assumed, species assumed, one chain of several): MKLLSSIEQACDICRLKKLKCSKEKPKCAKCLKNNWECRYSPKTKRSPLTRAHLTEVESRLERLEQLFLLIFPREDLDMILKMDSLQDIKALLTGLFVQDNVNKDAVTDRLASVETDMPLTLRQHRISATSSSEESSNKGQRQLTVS
Description: Potencies of inhibitor compounds against menin/MLL were tested in a mammalian cellular two-hybrid assay system. HEK293 cells (American Type Culture Collection (ATCC); Manassas, Va.) were co-transfected with three plasmids: one encoding Gal4-Menin (200 ng per 10^6 cells), another encoding MLL1-46-VP16 (100 ng per 10^6 cells), and a reporter plasmid pNL3.3-4×UAS (500 ng per 10^6 cells) encoding secreted NanoLuc® luciferase (Promega) with the upstream 4×UAS repeats for Gal4 binding. Transfection was performed in Opti-MEM® media using Lipofectamine® LTX with Plus™ Reagent (ThermoFisher Scientific) according to manufacturer's protocol. Cells were incubated with transfection reagents at 37° C. 5% CO2 for 5-6 h, harvested by trypsinization and centrifugation at 300×g for 5 min and resuspended in Gibco® DMEM media (phenol red-free, no antibiotics) containing 10% delipidated fetal bovine serum (FBS) (ThermoFisher Scientific). Concentration of cells in the media was adjusted to 3.5×10^5 cells/ml, and 100 μl of the cell suspension was dispensed into each well of 96-well Costar™ black clear bottom cell culture plates (Fisher Scientific). Tested compounds were added as 100 μL of 2× solutions in the media. Final concentration of DMSO was 0.1% in all wells. The cells were incubated with tested compounds at 37° C. 5% CO2 for 16-18 h. At the end of the incubation, 40 μL of the conditioned media from each well was transferred into each well of 96-well Costar™ black half-area plates (Fisher Scientific), to which 40 μl of 2× reconstituted NanoGlo® luciferase assay reagent (Promega) was added and thoroughly mixed on a microshaker for 2-3 min. Remaining media in the culture plates was removed by emptying the wells and blotting the plates on filter paper. The cells were lysed with 1× CellTiter-Glo® Luminescent Cell Viability Assay reagent (Promega) for assessing toxicity of the tested compounds. Both, Nano-Glo® and CellTiter-Glo® luminescence intensities were measured on EnVision® multilabel plate reader (PerkinElmer). Percent inhibition values were calculated based on Nano-Glo® luciferase activity observed with the tested compounds vs. DMSO control and commercially available menin inhibitor MI-2-2 (4-(4-(5,5-Dimethyl-4,5-dihydrothiazol-2-yl)piperazin-1-yl)-6-(2,2,2-trifluoroethyl)thieno[2,3-d]pyrimidine) (EMD Millipore, Cat. No. 444825) incubated with cells at 5 μM. These percent inhibition values were regressed against compound concentrations in the assay using non-linear 4-parameter logit curve fitting (XLFit, IDBS). Half maximal inhibitory concentrations (IC50) were calculated as the parameters of the fit corresponding to the inflection points on semi-logarithmic dose-response curves.

[2] = molecular target: T2, wild-type menin / MLL-AF9 fusion protein (Homo sapiens, UniProt O00255); experiment: AlphaLISA menin/MLL binding assay, wild-type menin (Assay 1); conditions: biotinylated wild-type menin 5 nM, MLL-AF9-FLAG lysate
T2 construct: made in house; host or cells: E. coli (menin); HEK293 cleared lysate (MLL-AF9-FLAG)
T2 sequence (O00255 1-610): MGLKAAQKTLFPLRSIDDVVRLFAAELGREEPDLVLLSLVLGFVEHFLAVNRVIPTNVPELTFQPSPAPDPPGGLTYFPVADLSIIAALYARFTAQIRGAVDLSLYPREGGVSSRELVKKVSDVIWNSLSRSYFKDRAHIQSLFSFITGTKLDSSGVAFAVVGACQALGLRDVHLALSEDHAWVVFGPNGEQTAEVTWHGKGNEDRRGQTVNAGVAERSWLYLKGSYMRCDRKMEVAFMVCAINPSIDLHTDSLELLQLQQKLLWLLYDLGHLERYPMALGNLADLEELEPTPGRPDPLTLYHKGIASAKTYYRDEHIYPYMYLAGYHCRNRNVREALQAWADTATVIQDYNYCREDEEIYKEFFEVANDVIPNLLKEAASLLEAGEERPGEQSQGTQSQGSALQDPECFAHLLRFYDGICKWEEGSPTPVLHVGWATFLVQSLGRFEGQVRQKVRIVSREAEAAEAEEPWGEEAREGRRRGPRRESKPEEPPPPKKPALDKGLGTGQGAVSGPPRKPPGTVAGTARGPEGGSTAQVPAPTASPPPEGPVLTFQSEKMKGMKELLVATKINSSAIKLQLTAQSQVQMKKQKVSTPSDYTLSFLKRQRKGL
Method in brief: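 Biotinylated wild-type or mutated menin (5 nM, E. coli-expressed) was preincubated 30 min at RT with compound and HEK293 lysate containing MLL1-1,396–AF9 1-92–FLAG. Buffer was 50 mM Tris-HCl pH 7.4, 5% DMSO, 50 mM NaCl, 0.01% BSA, 1 mM DTT. Anti-FLAG acceptor and streptavidin donor beads (10 μg/mL each) were then added for 60 min. IC50 came from a four-parameter fit of the Alpha signal inhibition.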

| pIC50 [1] | pIC50 [2] | Compound |
| --- | --- | --- |
| > 7.00 | > 7.00 | O=c1[nH]c2ccc(CN3CCC4(CCN(c5ncnc6sc(CC(F)(F)F)cc56)C4)C3)cc2[nH]1 (stereo not shown) [Example 39, 5-((7-(6-(2,2,2-trifluoroethyl)thieno[2,3-d]pyrimidin-4-yl)-2,7-diazaspiro[4.4]nonan-2-yl)methyl)-1H-benzo[d]imidazol-2(3H)-one] |
| ≤ 6.00 | 6.00 to 7.00 | FC(F)(F)Cc1cc2c(N3CCC4(CCN(Cc5ccccc5)C4)CC3)ncnc2s1 [Example 23, 4-(2-benzyl-2,8-diazaspiro[4.5]decan-8-yl)-6-(2,2,2-trifluoroethyl)thieno[2,3-d]pyrimidine] |
| 6.00 to 7.00 | > 7.00 | Cc1c(CN2CCC3(CCN(c4ncnc5ccc(CC(F)(F)F)cc45)C3)C2)ccc2[nH]c(C#N)cc12 (stereo not shown) [Example 90, 4-methyl-5-((7-(6-(2,2,2-trifluoroethyl)quinazolin-4-yl)-2,7-diazaspiro[4.4]nonan-2-yl)methyl)-1H-indole-2-carbonitrile] |
| 6.00 to 7.00 | 6.00 to 7.00 | CC(C)(N)C(=O)N1CCC2(CCN(c3ncnc4sc(CC(F)(F)F)cc34)C2)C1 (stereo not shown) [Example 58, 2-Amino-2-methyl-1-(7-(6-(2,2,2-trifluoroethyl)thieno[2,3-d]pyrimidin-4-yl)-2,7-diazaspiro[4.4]nonan-2-yl)propan-1-one] |
| 6.00 to 7.00 | 6.00 to 7.00 | FC(F)(F)Cc1cc2c(N3CC4(CN(CC5CCOCC5)C4)C3)ncnc2s1 [Example 66, 4-(6-((tetrahydro-2H-pyran-4-yl)methyl)-2,6-diazaspiro[3.3]heptan-2-yl)-6-(2,2,2-trifluoroethyl)thieno[2,3-d]pyrimidine] |
| 6.00 to 7.00 | > 7.00 | FC(F)(F)Cc1cc2c(N3CCC4(CCN(Cc5ccc6[nH]ccc6c5)C4)C3)ncnc2s1 (stereo not shown) [Example 28, 4-(7-((1H-indol-5-yl)methyl)-2,7-diazaspiro[4.4]nonan-2-yl)-6-(2,2,2-trifluoroethyl)thieno[2,3-d]pyrimidine] |
| ≤ 6.00 | > 7.00 | FC(F)(F)Cc1cc2c(N3CC4(CCN(CC5CCOCC5)C4)C3)ncnc2s1 [Example 93, 4-(6-((tetrahydro-2H-pyran-4-yl)methyl)-2,6-diazaspiro[3.4]octan-2-yl)-6-(2,2,2-trifluoroethyl)thieno[2,3-d]pyrimidine] |
| > 7.00 | > 7.00 | Cc1c(CN2CCC3(CCN(c4ncnc5sc(CC(F)(F)F)cc45)C3)C2)ccc2[nH]c(C#N)cc12 (racemic) [Example 30, 4-methyl-5-((7-(6-(2,2,2-trifluoroethyl)thieno[2,3-d]pyrimidin-4-yl)-2,7-diazaspiro[4.4]nonan-2-yl)methyl)-1H-indole-2-carbonitrile] |
| 6.00 to 7.00 | > 7.00 | CS(=O)(=O)N[C@H]1CC[C@@H](CN2CCC3(CCN(c4ncnc5sc(CC(F)(F)F)cc45)C3)C2)CC1 (stereo partly shown) [Example 49, N-((1s,4s)-4-((7-(6-(2,2,2-trifluoroethyl)thieno[2,3-d]pyrimidin-4-yl)-2,7-diazaspiro[4.4]nonan-2-yl)methyl)cyclohexyl)methanesulfonamide] |
| > 7.00 | > 7.00 | Cc1c(CN2CCC3(CCN(c4ncnc5sc(CC(F)(F)F)cc45)C3)C2)ccc2[nH]c(C#N)cc12 (single isomer, unassigned) [Example 30a, 4-methyl-5-((7-(6-(2,2,2-trifluoroethyl)thieno[2,3-d]pyrimidin-4-yl)-2,7-diazaspiro[4.4]nonan-2-yl)methyl)-1H-indole-2-carbonitrile] |
| 6.00 to 7.00 | 6.00 to 7.00 | COC1CCC(CN2CC3(C2)CN(c2ncnc4sc(CC(F)(F)F)cc24)C3)CC1 (stereo not shown) [Example 75, 4-(6-((4-methoxycyclohexyl)methyl)-2,6-diazaspiro[3.3]heptan-2-yl)-6-(2,2,2-trifluoroethyl)thieno[2,3-d]pyrimidine] |
| 6.00 to 7.00 | > 7.00 | CS(=O)(=O)N[C@H]1CC[C@H](CN2CCC3(CCN(c4ncnc5sc(CC(F)(F)F)cc45)C3)C2)CC1 (stereo partly shown) [Example 48, N-((1r,4r)-4-((7-(6-(2,2,2-trifluoroethyl)thieno[2,3-d]pyrimidin-4-yl)-2,7-diazaspiro[4.4]nonan-2-yl)methyl)cyclohexyl)methanesulfonamide] |
| ≤ 6.00 | 6.00 to 7.00 | CCC(C)CN1CC2(CCN(c3ncnc4sc(CC(F)(F)F)cc34)CC2)C1 (stereo not shown) [Example 22, 4-(2-(2-methylbutyl)-2,7-diazaspiro[3.5]nonan-7-yl)-6-(2,2,2-trifluoroethyl)thieno[2,3-d]pyrimidine] |
| 6.00 to 7.00 | > 7.00 | CC(=O)Nc1ccc(CN2CCC3(CCN(c4ncnc5sc(CC(F)(F)F)cc45)C3)C2)c(C)c1 (stereo not shown) [Example 42, N-(3-methyl-4-((7-(6-(2,2,2-trifluoroethyl)thieno[2,3-d]pyrimidin-4-yl)-2,7-diazaspiro[4.4]nonan-2-yl)methyl)phenyl)acetamide] |
| 6.00 to 7.00 | > 7.00 | FC(F)(F)Cc1cc2c(N3CCC4(CCN(Cc5ccc6cc[nH]c6c5)C4)C3)ncnc2s1 (stereo not shown) [Example 29, 4-(7-((1H-indol-6-yl)methyl)-2,7-diazaspiro[4.4]nonan-2-yl)-6-(2,2,2-trifluoroethyl)thieno[2,3-d]pyrimidine] |
| 6.00 to 7.00 | > 7.00 | O=c1[nH]c2cc(CN3CCC4(CCN(c5ncnc6cc(CC(F)(F)F)sc56)C4)C3)ccc2n1CCO (stereo not shown) [Example 119, 1-(2-hydroxyethyl)-5-((7-(6-(2,2,2-trifluoroethyl)thieno[3,2-d]pyrimidin-4-yl)-2,7-diazaspiro[4.4]nonan-2-yl)methyl)-1H-benzo[d]imidazol-2(3H)-one] |
| 6.00 to 7.00 | > 7.00 | Cc1cc(NS(C)(=O)=O)ccc1CN1CCC2(CCN(c3ncnc4sc(CC(F)(F)F)cc34)C2)C1 (stereo not shown) [Example 54, N-(3-methyl-4-((7-(6-(2,2,2-trifluoroethyl)thieno[2,3-d]pyrimidin-4-yl)-2,7-diazaspiro[4.4]nonan-2-yl)methyl)phenyl)methanesulfonamide] |
| ≤ 6.00 | 6.00 to 7.00 | CC(C)(C)CN1CC2(CCN(c3ncnc4sc(CC(F)(F)F)cc34)CC2)C1 [Example 18, 4-(2-neopentyl-2,7-diazaspiro[3.5]nonan-7-yl)-6-(2,2,2-trifluoroethyl)thieno[2,3-d]pyrimidine] |
| 6.00 to 7.00 | > 7.00 | O=c1[nH]c2ccc(CN3CCC4(CCN(c5ncnc6sc(CC(F)(F)F)cc56)C4)C3)cc2o1 (stereo not shown) [Example 40, 6-((7-(6-(2,2,2-trifluoroethyl)thieno[2,3-d]pyrimidin-4-yl)-2,7-diazaspiro[4.4]nonan-2-yl)methyl)benzo[d]oxazol-2(3H)-one] |

| Compound | pIC50 [1] | pIC50 [2] |
| --- | --- | --- |
| Cn1c(=O)[nH]c2cc(CN3CCC4(CCN(c5ncnc6sc(CC(F)(F)F)cc56)C4)C3)ccc21 (stereo not shown) [Example 41, 1-methyl-5-((7-(6-(2,2,2-trifluoroethyl)thieno[2,3-d]pyrimidin-4-yl)-2,7-diazaspiro[4.4]nonan-2-yl)methyl)-1H-benzoldlimidazol-2(3H)-one] | > 7.00 | > 7.00 |
